According to ChEMBL document CHEMBL3232853, “Alkylsulfone-containing trisubstituted cyclohexanes as potent and bioavailable chemokine receptor 2 (CCR2) antagonists” (Bioorg Med Chem Lett, 2014):
Activity calls are given as the source filed them. No cut-off for these calls is given here.

Tests used:
Rattus norvegicus [1] = species: Rattus norvegicus; experiment: Inhibition of rat sodium channel site 2 at 10 uM relative to control
[2] = target: C-C chemokine receptor type 2 (Homo sapiens, UniProt P41597); experiment: Displacement of [125I]-labeled human MCP1 from CCR2 in human PBMC
[3] = Antagonist activity at CCR2 in human monocytes assessed as reduction of chemotaxis in presence of […]
Liver microsome = conditions: human, microsomes, 10 min
Description: Metabolic stability in human liver microsomes assessed as compound remaining after 10 mins

[4] = Permeability across apical to basolateral side in human Caco2 cells; format: ADME, cell-based; conditions: Caco-2, read-out: permeability
[5] = target: Voltage-gated inwardly rectifying potassium channel KCNH2 (Homo sapiens, UniProt Q12809); experiment: Inhibition of human ERG by FLIPR assay
Homo sapiens = species: Homo sapiens; experiment: Inhibition of sodium channel (unknown origin) at 10 uM at 4 Hz by patch clamp assay relative to control
Mus musculus [6] = experiment: Oral bioavailability in mouse at 54 mg/kg; format: ADME, organism-based; conditions: in vivo
[7] = Clearance in dog at 1 mg/kg, iv; format: ADME, organism-based, Canis lupus familiaris; design: dose 1 mg/kg, route intravenous; conditions: in vivo
Cynomolgus monkey [8] = experiment: Oral bioavailability in cynomolgus monkey at 14 mg/kg; format: ADME, organism-based, Macaca fascicularis; conditions: in vivo
[9] = Clearance in mouse at 3 mg/kg, iv; format: ADME, organism-based; design: dose 3 mg/kg, route intravenous; conditions: in vivo
[10] = Clearance in rat at 6 mg/kg, iv; format: ADME, organism-based; design: dose 6 mg/kg, route intravenous; conditions: in vivo
Mus musculus [11] = experiment: Antiinflammatory activity in thioglycollate-induced human CCR2 knock-in mouse peritonitis model assessed as reduction of Ly6C+F4/80+ cell numbers in peripheral blood at 50 mg/kg, po administered 1 hr prior to thioglycollate challenge measured after 6 hrs; format: functional, organism-based; design: dose 50 mg/kg
Mus musculus [12] = experiment: Antiinflammatory activity in thioglycollate-induced human CCR2 knock-in mouse peritonitis model assessed as reduction of Ly6C+F4/80+ cell numbers in peritoneal cavity at 50 mg/kg, po administered 1 hr prior to thioglycollate challenge measured after 6 hrs; format: functional, organism-based; design: dose 50 mg/kg
[13] = Clearance in cynomolgus monkey at 1 mg/kg, iv; format: ADME, organism-based, Macaca fascicularis; design: dose 1 mg/kg, route intravenous; conditions: in vivo
Canis familiaris [14] = experiment: Oral bioavailability in dog at 14 mg/kg; format: ADME, organism-based, Canis lupus familiaris; conditions: in vivo
Rattus norvegicus [15] = experiment: Oral bioavailability in rat at 72 mg/kg; format: ADME, organism-based; conditions: in vivo
Rattus norvegicus [16] = experiment: Oral bioavailability in rat at 43 mg/kg; format: ADME, organism-based; conditions: in vivo
Mus musculus [17] = experiment: Antiinflammatory activity in thioglycollate-induced human CCR2 knock-in mouse peritonitis model assessed as reduction of Ly6C+F4/80+ cell number peritoneal cavity at 100 mg/kg, po administered 1 hr prior to thioglycollate challenge measured after 6 hrs; format: functional, organism-based; design: dose 100 mg/kg
Mus musculus [18] = species: Mus musculus; experiment: Antiinflammatory activity in thioglycollate-induced wild type mouse peritonitis model; format: functional, organism-based
Mus musculus [19] = experiment: Antiinflammatory activity in thioglycollate-induced human CCR2 knock-in mouse peritonitis model assessed as reduction of Ly6C+F4/80+ cell numbers in peripheral blood at 100 mg/kg, po administered 1 hr prior to thioglycollate challenge measured after 6 hrs; format: functional, organism-based; design: dose 100 mg/kg
Canis familiaris [20] = experiment: Oral bioavailability in dog at 10 mg/kg; format: ADME, organism-based, Canis lupus familiaris; conditions: in vivo
[21] = Clearance in rat at 4 mg/kg, iv; format: ADME, organism-based; design: dose 4 mg/kg, route intravenous; conditions: in vivo
[22] = Clearance in mouse at 5 mg/kg, iv; format: ADME, organism-based; design: dose 5 mg/kg, route intravenous; conditions: in vivo
Mus musculus [23] = experiment: Oral bioavailability in mouse at 100 mg/kg; format: ADME, organism-based; conditions: in vivo
Cynomolgus monkey [24] = experiment: Oral bioavailability in cynomolgus monkey at 10 mg/kg; format: ADME, organism-based, Macaca fascicularis; conditions: in vivo

Chain of C-C chemokine receptor type 2 (P41597 whole entry): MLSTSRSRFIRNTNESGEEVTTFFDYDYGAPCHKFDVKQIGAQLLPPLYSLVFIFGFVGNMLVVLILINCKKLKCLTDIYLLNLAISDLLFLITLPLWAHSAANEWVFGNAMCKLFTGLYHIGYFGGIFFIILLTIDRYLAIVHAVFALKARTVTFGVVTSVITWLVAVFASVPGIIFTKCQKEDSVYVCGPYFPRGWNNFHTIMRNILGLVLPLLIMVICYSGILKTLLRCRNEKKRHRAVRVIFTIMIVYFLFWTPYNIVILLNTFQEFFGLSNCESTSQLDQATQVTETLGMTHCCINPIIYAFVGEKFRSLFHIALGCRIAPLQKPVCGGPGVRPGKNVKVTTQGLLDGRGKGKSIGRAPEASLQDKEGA
Chain of Voltage-gated inwardly rectifying potassium channel KCNH2 (Q12809 whole entry): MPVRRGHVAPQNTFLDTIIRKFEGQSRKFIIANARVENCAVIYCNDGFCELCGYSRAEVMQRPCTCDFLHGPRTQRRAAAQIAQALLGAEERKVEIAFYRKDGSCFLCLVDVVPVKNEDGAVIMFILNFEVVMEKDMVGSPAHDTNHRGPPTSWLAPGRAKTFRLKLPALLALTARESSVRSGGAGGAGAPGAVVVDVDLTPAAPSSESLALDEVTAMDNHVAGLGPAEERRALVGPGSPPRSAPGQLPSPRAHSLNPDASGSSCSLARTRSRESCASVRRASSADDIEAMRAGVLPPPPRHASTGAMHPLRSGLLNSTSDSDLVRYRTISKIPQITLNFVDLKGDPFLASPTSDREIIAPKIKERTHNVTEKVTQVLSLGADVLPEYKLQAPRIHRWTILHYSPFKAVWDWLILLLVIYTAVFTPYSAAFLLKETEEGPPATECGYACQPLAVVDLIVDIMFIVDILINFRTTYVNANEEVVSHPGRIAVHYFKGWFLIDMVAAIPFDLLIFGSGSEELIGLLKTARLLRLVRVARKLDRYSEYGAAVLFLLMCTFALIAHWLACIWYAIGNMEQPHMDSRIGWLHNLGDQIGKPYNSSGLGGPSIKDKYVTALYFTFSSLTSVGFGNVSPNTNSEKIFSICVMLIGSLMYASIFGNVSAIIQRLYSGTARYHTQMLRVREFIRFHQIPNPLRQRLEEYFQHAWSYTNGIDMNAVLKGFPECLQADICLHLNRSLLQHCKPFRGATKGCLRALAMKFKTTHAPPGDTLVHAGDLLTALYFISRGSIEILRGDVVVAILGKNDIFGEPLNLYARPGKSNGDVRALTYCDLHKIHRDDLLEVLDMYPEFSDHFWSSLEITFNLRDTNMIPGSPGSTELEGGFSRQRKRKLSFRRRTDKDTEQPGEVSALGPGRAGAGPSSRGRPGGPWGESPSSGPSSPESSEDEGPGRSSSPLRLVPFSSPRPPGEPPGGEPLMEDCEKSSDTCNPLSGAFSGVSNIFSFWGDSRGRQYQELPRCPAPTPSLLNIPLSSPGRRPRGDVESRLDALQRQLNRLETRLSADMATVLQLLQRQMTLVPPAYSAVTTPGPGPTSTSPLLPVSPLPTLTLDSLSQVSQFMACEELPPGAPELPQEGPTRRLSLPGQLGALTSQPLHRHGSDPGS

Row | SMILES | inhibition (Rattus norvegicus [1]) | IC50 [2] | Stability (Liver microsome) | Papp A→B [4] | also measured
1 | CC(C)N(C)[C@@H]1CC[C@H](N2CC[C@H](NC(=O)c3cccc(C(C)(C)C)n3)C2=O)[C@H](CS(C)(=O)=O)C1 | 46% | 0.7 nM | – | – | –
2 | CC(C)N(C)[C@@H]1CC[C@H](N2CC[C@H](NC(=O)c3cccc(C(F)(F)F)c3)C2=O)[C@H](CS(=O)(=O)c2ccccc2)C1 | – | – | 88% | < 1.5 ×10⁻⁶ cm/s | IC50 [3]: 0.5 nM
3 | CC(C)N(C)[C@@H]1CC[C@H](N2CC[C@H](NC(=O)c3cccc(C(F)(F)F)n3)C2=O)[C@H](CS(C)(=O)=O)C1 | 0% | 2.2 nM | – | – | IC50 [5]: > 80000 nM
4 | CC(C)N(C)[C@@H]1CC[C@H](N2CC[C@H](NC(=O)c3cccc(OC(F)(F)F)c3)C2=O)[C@H](CS(=O)(=O)C(C)(C)C)C1 | 61% | 1.2 nM | – | – | IC50 [5]: > 80000 nM
5 | CC(C)N(C)[C@@H]1CC[C@H](N2CC[C@H](NC(=O)c3cccc(OC(F)(F)F)c3)C2=O)[C@H](CS(C)(=O)=O)C1 | 32% | 5 nM | – | – | –
6 | CCS(=O)(=O)C[C@@H]1C[C@H](N(C)C(C)C)CC[C@@H]1N1CC[C@H](NC(=O)c2cccc(-c3ccccc3)c2)C1=O | – | 1.1 nM | – | – | IC50 [5]: 60000 nM
7 | Cc1ccc(C(=O)N[C@H]2CCN([C@H]3CC[C@@H](N(C)C(C)C)C[C@H]3CS(C)(=O)=O)C2=O)cc1C(F)(F)F | 36% | 5.2 nM | – | – | –
8 | CCS(=O)(=O)C[C@@H]1C[C@H](N(C)C(C)C)CC[C@@H]1N1CC[C@H](NC(=O)c2cccc(C(F)(F)F)c2)C1=O | 26% | 1.2 nM | 100% | < 1.5 ×10⁻⁶ cm/s | inhibition (Homo sapiens): 4.2%
9 | CC(C)N(C)[C@@H]1CC[C@H](N2CC[C@H](NC(=O)c3cccc(C(C)(C)C)c3)C2=O)[C@H](CS(C)(=O)=O)C1 | – | 1.2 nM | – | – | –
10 | CC(C)N(C)[C@@H]1CC[C@H](N2CC[C@H](NC(=O)c3cccc(C(F)(F)F)c3)C2=O)[C@H](CS(C)(=O)=O)C1 | 3% | 1.8 nM | 100% | < 1.5 ×10⁻⁶ cm/s | F (Mus musculus [6]): 16%; clearance [7]: 3 mL/min/kg; F (Cynomolgus monkey [8]): 9%; clearance [9]: 70 mL/min/kg; clearance [10]: 42 mL/min/kg; inhibition (Homo sapiens): 22%; Activity (Mus musculus [11]): Active; Activity (Mus musculus [12]): Active; clearance [13]: 14 mL/min/kg; F (Canis familiaris [14]): 51%; F (Rattus norvegicus [15]): 1%
11 | CC(C)N(C)[C@@H]1CC[C@H](N2CC[C@H](NC(=O)c3cc(F)cc(C(F)(F)F)c3)C2=O)[C@H](CS(=O)(=O)C(C)(C)C)C1 | 48% | 1.3 nM | – | – | IC50 [5]: > 80000 nM
12 | CC(C)N(C)[C@@H]1CC[C@H](N2CC[C@H](NC(=O)c3cccc(C(F)(F)F)c3)C2=O)[C@H](CS(=O)(=O)C(C)(C)C)C1 | 48% | 0.96 nM | 100% | 3 ×10⁻⁶ cm/s | F (Rattus norvegicus [16]): 14%; Activity (Mus musculus [17]): Active; clearance [7]: 5 mL/min/kg; Activity (Mus musculus [18]): inactive; inhibition (Homo sapiens): 19%; clearance [13]: 12 mL/min/kg; Activity (Mus musculus [19]): Active; F (Canis familiaris [20]): 74%; clearance [21]: 54 mL/min/kg; clearance [22]: 25 mL/min/kg; F (Mus musculus [23]): 13%; F (Cynomolgus monkey [24]): 26%
13 | CC(C)N(C)[C@@H]1CC[C@H](N2CC[C@H](NC(=O)c3cccc(C(F)(F)F)c3)C2=O)[C@H](CS(=O)(=O)C(C)C)C1 | – | 0.34 nM | 100% | < 1.5 ×10⁻⁶ cm/s | –
14 | CC(C)N(C)[C@@H]1CC[C@H](N2CC[C@H](NC(=O)c3cccc(C(C)(C)C)c3)C2=O)[C@H](CS(=O)(=O)C(C)C)C1 | – | 0.5 nM | – | – | –
